In publication PMC3364195, “Fractionation of a Herbal Antidiarrheal Medicine Reveals Eugenol as an Inhibitor of Ca^2+-Activated Cl^− Channel TMEM16A” (PLoS ONE, 2012):
Several values for one entry are separate records, joined by “and”; a condition that tells them apart may be missing. Equal values may be shown once. Entries after “also recorded” stand apart in the source; their conditions may differ. Values belong to the compound of their own block, whether it stands above or below them.

Legend:
human TMEM16A [1] = molecular target: T1, human TMEM16A (Homo sapiens, UniProt Q5XXA6); experiment: Short-circuit current in TMEM16A-expressing FRT cells; assay type: cell-based
T1 sequence (Q5XXA6 1-986): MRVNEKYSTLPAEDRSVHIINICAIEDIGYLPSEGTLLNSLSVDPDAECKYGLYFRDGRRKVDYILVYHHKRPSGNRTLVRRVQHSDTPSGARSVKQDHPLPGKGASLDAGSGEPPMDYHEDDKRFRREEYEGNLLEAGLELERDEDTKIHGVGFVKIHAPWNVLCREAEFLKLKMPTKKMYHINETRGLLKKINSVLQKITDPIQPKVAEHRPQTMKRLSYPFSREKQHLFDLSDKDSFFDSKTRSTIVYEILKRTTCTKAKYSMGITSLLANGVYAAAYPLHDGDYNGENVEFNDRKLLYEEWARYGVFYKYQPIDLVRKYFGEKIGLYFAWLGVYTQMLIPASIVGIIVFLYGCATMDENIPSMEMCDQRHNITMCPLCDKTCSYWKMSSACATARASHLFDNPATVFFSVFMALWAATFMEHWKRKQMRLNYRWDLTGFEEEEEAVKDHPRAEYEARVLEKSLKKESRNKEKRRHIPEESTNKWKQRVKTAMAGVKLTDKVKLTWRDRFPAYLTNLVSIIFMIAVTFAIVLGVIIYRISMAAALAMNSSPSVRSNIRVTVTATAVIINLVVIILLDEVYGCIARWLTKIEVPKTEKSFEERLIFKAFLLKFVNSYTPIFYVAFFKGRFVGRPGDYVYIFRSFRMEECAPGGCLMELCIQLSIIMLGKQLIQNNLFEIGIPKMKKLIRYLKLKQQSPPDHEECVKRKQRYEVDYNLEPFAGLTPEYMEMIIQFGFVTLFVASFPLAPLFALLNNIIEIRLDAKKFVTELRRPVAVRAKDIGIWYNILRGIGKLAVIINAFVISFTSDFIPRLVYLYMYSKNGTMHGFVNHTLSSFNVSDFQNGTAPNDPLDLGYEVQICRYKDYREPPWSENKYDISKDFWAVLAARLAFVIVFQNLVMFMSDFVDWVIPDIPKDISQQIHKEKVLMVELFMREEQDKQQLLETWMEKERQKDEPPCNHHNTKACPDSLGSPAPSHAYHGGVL
Description: (§1) FRT cells stably expressing human TMEM16A and the halide sensor YFP-H148Q/I152L/F46L were generated as described. Cells were plated in 96-well black-walled microplates (Corning Inc., Corning, NY) at a density of 20,000 cells per well in Coon's modified F12 medium supplemented with 5% fetal calf serum, 2 mM L-glutamine, 100 U/mL penicillin and 100 µg/mL streptomycin. T84 cells were cultured in DMEM/Ham's F-12 (1∶1) medium containing 10% FBS, 100 U/ml penicillin and 100 µg/ml streptomycin. A commercially available Thai herbal formulation (Krisanaklan, Osotspa Inc., Bangkapi, Thailand) consists of an ethanol/water (54∶46) extract in which each 100 mL was obtained from 10 g of Aquilaria crassna bark, 33.3 g of clove flower bud, 2 g of Terminalia triptera Stapf bark and 4.8 g of camphor flower bud. HPLC grade solvents were purchased from Fisher Scientific (Fairlawn, VA) and EMD Chemical Inc. (Philadelphia, PA). Eugenol and eugenol analog 2 were purchased from Sigma-Aldrich (St. Louis, MO). Other eugenol analogs were purchased from Fisher Scientific (Pittsburgh, PA).
(§2) Snapwell inserts containing TMEM16A-expressing FRT cells or T84 cells were mounted in Ussing chambers (Physiologic Instruments, San Diego, CA). Activators and inhibitors (herbal formulation, eugenol, ionomycin, tannic acid, forskolin, CFTRinh-172, ATP, Eact, T16Ainh-A01) were added to the apical solution and an equal volume of vehicle was added at the same time to the basolateral solution. Symmetrical HCO3 ^−-buffered solutions were used for T84 cells. For FRT cells, the hemichambers were filled with a half-Cl^− solution (apical) and the HCO3 ^−-buffered solution (basolateral), and the basolateral membrane was permeabilized with 250 µg/mL amphotericin B. Cells were bathed for a 10 min stabilization period and aerated with 95% O2/5% CO2 at 37°C or room temperature. Short-circuit current was measured using an EVC4000 Multi-Channel V/I Clamp (World Precision Instruments, Sarasota, FL).

human TMEM16A [2] = molecular target: T1, human TMEM16A; experiment: Plate-reader YFP fluorescence assay of TMEM16A-mediated I- influx in FRT cells; assay type: cell-based
Description: as §1, with “HPLC grade solvents were purchased from Fisher Scientific (Fairlawn, VA) and EMD Chemical Inc. (Philadelphia, PA). Eugenol and eugenol analog 2 were purchased from Sigma-Aldrich (St. Louis, MO). Other eugenol analogs were purchased from Fisher Scientific (Pittsburgh, PA).” left out
YFP fluorescence measurements in TMEM16A expressing FRT cells were carried out on a fluorescence plate reader (Optima; BMG Labtech, Durham, NC) equipped with dual syringe pumps and 500±10 nm excitation and 535±15 nm emission filters as described. […] After 10 min incubation, each well was assayed individually for TMEM16A-mediated I^− influx by recording fluorescence continuously (400 ms per point) for 2 s (baseline), followed by addition of 100 µL of a 140 mM I^− solution containing 200 µM ATP. The initial rate of I^− influx was computed from fluorescence data by non-linear regression.

[3] = tested on: cytoplasmic Ca2+ elevation in FRT cells; experiment: Cytoplasmic Ca2+ measurement (Fluo-4) in FRT cells; assay type: cell-based; settings: Fluo-4 fluorescence, 10 min incubation
Description: FRT cells in 96-well plates were loaded with Fluo-4 NW (Invitrogen, Carlsbad, CA) at 48 h after plating. Fluo-4 fluorescence was measured continuously using a FLUOstar Optima fluorescence plate reader (BMG Labtechnologies) equipped with syringe pump for addition of ATP.

TMEM16A = experiment: Whole-cell patch-clamp on TMEM16A-expressing FRT cells; assay type: cell-based, human; settings: 150 µM eugenol, 5 µM Eact, ±80 mV
Description: Whole-cell recordings were made at room temperature on TMEM16A-expressing FRT cells as described. The pipette solution contained (in mM): 130 CsCl, 0.5 EGTA, 1 MgCl2, 1 Tris-ATP, and10 HEPES (pH 7.2). The bath solution contained (in mM): 140 NMDG-Cl, 1 CaCl2, 1 MgCl2, 10 glucose and 10 HEPES (pH 7.4). TMEM16A was activated by 5 µM Eact and then inhibited by 150 µM eugenol. Whole-cell currents were elicited by applying hyperpolarizing and depolarizing voltage pulses from a holding potential of 0 mV to potentials between −80 mV and +80 mV in 20 mV steps. Currents were digitized, filtered at 5 kHz, and sampled at 1 kHz.

CFTR = molecular target: T2, CFTR (Homo sapiens, UniProt P13569); experiment: Short-circuit current in FRT cells expressing wild type CFTR; assay type: cell-based; settings: forskolin 20 µM stimulated
T2 construct: expressed in transfected cells; host or cells: FRT cells

mouse ileum = experiment: Intestinal smooth muscle contraction, mouse ileal segments ex vivo
Description: Wild type CD1 mice (age 8–10 weeks) were killed by avertin overdose (200 mg/kg). The ileum was removed and washed with ice-cold HCO3 ^−-buffered solution. The ends of the ileal segments were tied with silk thread and connected to a force transducer. Ileal segments were equilibrated for 60 min with a resting force of ∼1 mN, with changes of the bathing solution every 15 min. […] Data were recorded using MP100, Biopac digital acquisition system and analyzed using Acknowledge 3.5.7 software.

[4] = tested on: hyperpolarization-activated cyclic nucleotide-gated Na+ and K+ channels; set-up: method as in earlier work; settings: trigeminal ganglion neurons; ref 27 (Yeon et al.); read-out: IC50 for inhibition of HCN channels; cited from earlier work
[5] = tested on: Ca2+ current in cardiac myocytes; set-up: method as in PMID 15550789; settings: read-out: IC50 for inhibition of Ca2+ current; cited from earlier work
tracheal smooth muscle = tested on: tracheal smooth muscle; set-up: method as in PMID 21077946; settings: read-out: IC50 for inhibition of tracheal smooth muscle contraction; cited from earlier work
[6] = cited from earlier work
[7] = tested on: CaCC in T84 human colonic epithelial cells; experiment: Short-circuit current in T84 cells (ATP-stimulated native CaCC Cl- current); assay type: cell-based; settings: 100 µM tannic acid
Description: as §2

[8] = rat, oral 40 mg/kg, ref 30 (Lionnet et al.)

T2 sequence (P13569 whole entry, species assumed): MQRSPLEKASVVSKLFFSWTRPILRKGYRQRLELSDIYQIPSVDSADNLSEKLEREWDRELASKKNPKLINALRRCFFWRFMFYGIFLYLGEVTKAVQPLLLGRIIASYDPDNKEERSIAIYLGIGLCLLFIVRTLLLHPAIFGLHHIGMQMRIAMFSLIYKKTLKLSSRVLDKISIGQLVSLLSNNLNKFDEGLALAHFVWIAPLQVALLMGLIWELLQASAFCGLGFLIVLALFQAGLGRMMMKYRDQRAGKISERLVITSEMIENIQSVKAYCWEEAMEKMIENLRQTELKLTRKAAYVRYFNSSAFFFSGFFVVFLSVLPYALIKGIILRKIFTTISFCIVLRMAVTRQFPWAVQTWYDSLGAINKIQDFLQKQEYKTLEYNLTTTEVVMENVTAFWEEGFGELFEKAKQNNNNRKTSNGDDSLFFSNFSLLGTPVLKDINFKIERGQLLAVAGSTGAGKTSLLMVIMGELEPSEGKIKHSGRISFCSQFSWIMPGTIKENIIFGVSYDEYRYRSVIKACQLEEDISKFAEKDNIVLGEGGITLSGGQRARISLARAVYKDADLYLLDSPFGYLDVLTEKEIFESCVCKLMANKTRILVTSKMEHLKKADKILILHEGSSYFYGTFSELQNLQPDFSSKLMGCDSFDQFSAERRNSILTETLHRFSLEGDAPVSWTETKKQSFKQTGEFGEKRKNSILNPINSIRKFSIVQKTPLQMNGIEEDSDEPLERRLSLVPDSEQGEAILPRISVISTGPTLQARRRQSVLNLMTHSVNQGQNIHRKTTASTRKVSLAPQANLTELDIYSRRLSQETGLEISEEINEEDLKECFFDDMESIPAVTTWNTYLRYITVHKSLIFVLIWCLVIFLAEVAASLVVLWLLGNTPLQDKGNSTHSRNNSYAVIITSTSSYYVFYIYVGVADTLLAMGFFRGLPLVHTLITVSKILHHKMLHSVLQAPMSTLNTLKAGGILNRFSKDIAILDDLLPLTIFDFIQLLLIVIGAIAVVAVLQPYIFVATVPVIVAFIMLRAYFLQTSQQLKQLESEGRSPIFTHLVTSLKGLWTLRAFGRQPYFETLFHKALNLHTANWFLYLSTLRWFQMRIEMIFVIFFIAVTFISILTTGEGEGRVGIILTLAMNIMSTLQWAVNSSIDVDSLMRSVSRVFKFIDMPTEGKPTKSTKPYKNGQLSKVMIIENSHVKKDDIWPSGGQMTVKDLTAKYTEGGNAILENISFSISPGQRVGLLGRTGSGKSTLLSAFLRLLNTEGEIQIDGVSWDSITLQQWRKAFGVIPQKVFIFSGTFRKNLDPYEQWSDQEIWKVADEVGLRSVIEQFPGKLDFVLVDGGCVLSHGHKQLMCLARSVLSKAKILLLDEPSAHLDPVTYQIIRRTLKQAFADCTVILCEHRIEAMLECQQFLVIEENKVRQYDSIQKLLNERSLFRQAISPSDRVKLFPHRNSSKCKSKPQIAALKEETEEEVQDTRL

Compound: C=CCc1ccc(O)c(OC)c1 [compound 1, 4-allyl-2-methoxyphenol]
extent of inhibition of TMEM16A Cl- conductance (human TMEM16A [1]): fully inhibited | inhibition at 1000 µM (human TMEM16A [1]; FRT, read-out: inhibition of TMEM16A at 1 mM): > 95% | IC50 (human TMEM16A [1]; IC50 for inhibition of TMEM16A Cl- current, Eact (10 µM)-stimulated short-circuit current, FRT cells): 154 µM and ~150 µM | inhibition of ionomycin-activated TMEM16A Cl- current (human TMEM16A [1]; eugenol added 5 min prior to 1 µM ionomycin, amphotericin B permeabilized, Cl- gradient): concentration-dependent inhibition | inhibition at 200 µM (human TMEM16A [2]; FRT): 51 ± 7% | effect on cytoplasmic Ca2+ in response to ATP [3]: did not inhibit | block mechanism of TMEM16A chloride current (TMEM16A): voltage-independent block | effect on CFTR Cl- conductance (CFTR; eugenol up to 1 mM): little effect | IC50 (mouse ileum; Mus musculus, read-out: IC50 for inhibition of intestinal smooth muscle contraction): ~150 µM | inhibition of ileal contractions following activation by Eact (mouse ileum; atropine added initially): inhibition | effect on contraction frequency (mouse ileum; mouse ileal segments ex vivo): small effect | effect on resting and maximal tone (mouse ileum; mouse ileal segments ex vivo): more marked effect | inhibition of spontaneous intestinal contractions (mouse ileum; mouse ileal segments ex vivo, listed as Eugenol): strong inhibition | inhibition of spontaneous intestinal contractions (mouse ileum; mouse ileal segments ex vivo, listed as eugenol): inhibited by eugenol in a dose-dependent manner | IC50 [4]: 157 µM | IC50 [5]: ~300 µM | IC50 (tracheal smooth muscle): ~600 µM | serum concentration following intravenous administration ([6]; intravenous): 180000 nM | concentration in brain and spinal cord after oral administration [6, 8]: 2800 nM | concentration in serum after oral administration [6, 8]: 600 nM | serum concentration (similar oral study) ([6]; rats): 1500 nM

% inhibition at 200 μM (human TMEM16A [2]): 38 ± 7%
Compound: CCCc1ccc(O)c(OC)c1 [compound 5]

inhibition of TMEM16A Cl- current by 1 µM T16Ainh-A01 (human TMEM16A [1]; 1 µM): ~50%
Compound: CCc1c(C)nc(SCC(=O)Nc2nc(-c3ccc(OC)cc3)cs2)[nH]c1=O [T16Ainh-A01, reference compound]
inhibition of Eact-stimulated TMEM16A Cl- current (human TMEM16A [1]; Eact 10 µM, 10 µM T16Ainh-A01): completely inhibited; also recorded: totally inhibited

Compound: tannic acid
inhibition of ATP-stimulated CaCC Cl- current [7]: completely inhibited

inhibition of CFTR Cl- current (CFTR; 10 µM CFTRinh-172): completely inhibited
Compound: O=C(O)c1ccc(/C=C2\SC(=S)N(c3cccc(C(F)(F)F)c3)C2=O)cc1 [CFTRinh-172, reference compound]
